From patent US20080009479A1, “Tetrahydrobenzazepines as Histamine H3 Receptor Ligands” (GLAXO GROUP LIMITED, priority 2004, published 2008)

Columns and labels:
[1] = molecular target: T1, human histamine H3 receptor (Homo sapiens, UniProt Q9Y5N1); test: Histamine H3 functional antagonist assay (method A); assay type: biochemical; conditions: [35S]GTPγS SPA, CHO membranes, histamine 0.3 μM, 96 well
T1 construct: expressed in transfected cells; host or cells: CHO K1 cells carrying the pSwitch regulatory plasmid, transfected with pGeneH3 and induced with mifepristone; clone 3H3; membranes prepared from these cells
T1 sequence (Q9Y5N1 whole entry): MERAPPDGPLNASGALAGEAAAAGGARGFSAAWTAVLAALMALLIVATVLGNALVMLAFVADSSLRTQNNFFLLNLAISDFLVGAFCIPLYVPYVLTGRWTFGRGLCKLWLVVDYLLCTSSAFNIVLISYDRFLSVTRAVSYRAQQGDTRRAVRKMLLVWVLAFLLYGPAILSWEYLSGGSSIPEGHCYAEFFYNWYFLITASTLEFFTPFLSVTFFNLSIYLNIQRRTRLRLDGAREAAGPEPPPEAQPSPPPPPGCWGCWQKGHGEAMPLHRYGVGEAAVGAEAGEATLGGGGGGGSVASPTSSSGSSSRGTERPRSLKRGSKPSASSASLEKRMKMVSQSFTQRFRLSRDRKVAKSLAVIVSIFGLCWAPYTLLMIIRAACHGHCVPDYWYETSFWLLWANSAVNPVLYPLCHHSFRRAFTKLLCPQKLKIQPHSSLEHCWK
From the text: (§1) A membrane preparation containing histamine H3 receptors may be prepared in accordance with the following procedures:
(§2) DNA encoding the human histamine H3 gene (Huvar, A. et al. (1999) Mol. Pharmacol. 55(6), 1101-1107) was cloned into a holding vector, pCDNA3.1 TOPO (InVitrogen) and its cDNA was isolated from this vector by restriction digestion of plasmid DNA with the enzymes BamH1 and Not-1 and ligated into the inducible expression vector pGene (InVitrogen) digested with the same enzymes. The GeneSwitch™ system (a system where in transgene expression is switched off in the absence of an inducer and switched on in the presence of an inducer) was performed as described in U.S. Pat. Nos. 5,364,791; 5,874,534; and 5,935,934. […]
(§3) 10-14 days post selection 10 nM Mifepristone (InVitrogen), was added to the culture medium to induce the expression of the receptor. […] Receptor bound antibody was detected by incubation of the cells for 60 minutes on ice with a goat anti rabbit antibody, conjugated with Alexa 488 fluorescence marker (Molecular Probes). Following two further washes with Sorting Medium, cells were filtered through a 50 μm Filcon™ (BD Biosciences) and then analysed on a FACS Vantage SE Flow Cytometer fitted with an Automatic Cell Deposition Unit. […]

[2] = molecular target: T1, human histamine H3 receptor; test: Histamine H3 functional antagonist assay (method C); assay type: biochemical; conditions: [35S]GTPγS LeadSeeker SPA, CHO membranes, histamine at EC80, 384 well, compound in DMSO; read-out: antagonism pKb, histamine H3 functional antagonist assay (method C) (converted)
From the text: as §1, §2, §3

[3] = molecular target: T1, human histamine H3 receptor; test: Histamine H3 functional antagonist assay (method B); assay type: biochemical; conditions: [35S]GTPγS LeadSeeker SPA, CHO membranes, histamine at EC80, 384 well; read-out: antagonism pKb, histamine H3 functional antagonist assay (method B) (converted)
From the text: as §1
DNA encoding the human histamine H3 gene (Huvar, A. et al. (1999) Mol. Pharmacol. 55(6), 1101-1107) was cloned into a holding vector, pCDNA3.1 TOPO (InVitrogen) and its cDNA was isolated from this vector by restriction digestion of plasmid DNA with the enzymes BamH1 and Not-1 and ligated into the inducible expression vector pGene (InVitrogen) digested with the same enzymes. The GeneSwitch™ system (a system where in transgene expression is switched off in the absence of an inducer and switched on in the presence of an inducer) was performed as described in U.S. Pat. Nos. 5,364,791; 5,874,534; and 5,935,934. Ligated DNA was transformed into competent DH5α E. coli host bacterial cells and plated onto Luria Broth (LB) agar containing Zeocin™ (an antibiotic which allows the selection of cells expressing the sh ble gene which is present on pGene and pSwitch) at 50 μg ml^−1. Colonies containing the re-ligated plasmid were identified by restriction analysis. DNA for transfection into mammalian cells was prepared from 250 ml cultures of the host bacterium containing the pGeneH3 plasmid and isolated using a DNA preparation kit (Qiagen Midi-Prep) as per manufacturers guidelines (Qiagen). […]
as §3

human H1 receptor = molecular target: T2, human H1 receptor (Homo sapiens, UniProt P35367); test: Histamine H1 functional antagonist assay (method A); assay type: cell-based; conditions: FLIPR, FLUO4AM, suppression of histamine induced increase in fluorescence; read-out: antagonism pKb, histamine H1 functional antagonist assay (method A) (converted)
T2 construct: expressed in transfected cells; host or cells: Chinese hamster ovary cells stably expressing the human H1 receptor
T2 sequence (P35367 whole entry): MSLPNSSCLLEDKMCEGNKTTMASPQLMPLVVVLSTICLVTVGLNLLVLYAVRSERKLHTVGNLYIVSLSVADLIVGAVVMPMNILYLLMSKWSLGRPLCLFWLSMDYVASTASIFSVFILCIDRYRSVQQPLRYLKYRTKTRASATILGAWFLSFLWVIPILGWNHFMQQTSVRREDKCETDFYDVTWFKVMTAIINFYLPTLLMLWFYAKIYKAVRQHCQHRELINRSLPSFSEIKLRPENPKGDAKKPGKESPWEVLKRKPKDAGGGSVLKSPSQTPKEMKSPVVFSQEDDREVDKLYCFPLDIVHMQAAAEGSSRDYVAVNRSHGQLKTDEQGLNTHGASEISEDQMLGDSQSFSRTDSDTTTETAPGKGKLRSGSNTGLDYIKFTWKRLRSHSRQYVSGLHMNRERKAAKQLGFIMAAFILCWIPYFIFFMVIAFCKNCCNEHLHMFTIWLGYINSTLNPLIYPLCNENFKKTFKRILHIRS
Method: A histamine H1 cell line may be generated in accordance with the following procedure:
The human H1 receptor was cloned using known procedures described in the literature [Biochem. Biophys. Res. Commun. 1994, 201(2), 894]. Chinese hamster ovary cells stably expressing the human H1 receptor were generated according to known procedures described in the literature [Br. J. Pharmacol. 1996, 117(6), 1071].
(IV) Histamine H1 Functional Antagonist Assay (Method A)
The compound is assayed in a black walled clear bottom 384-well plate with cells seeded at 10000 cells/well. Tyrodes buffer is used throughout (NaCl 145 mM, KCl 2.5 mM, HEPES 10 mM, glucose 10 mM, MgCl2 1.2 mM, CaCl2 1.5 mM, probenecid 2.5 mM, pH adjusted to 7.40 with NaOH 1.0 M). Each well is treated with 10 μl of a solution of FLUO4AM (10 μM in Tyrodes buffer at pH 7.40) and plates are then incubated for 60 minutes at 37° C. Wells are then washed with Tyrodes buffer using a EMBLA cell washer system, leaving 40 μl buffer in each well, and then treated with 10 μl of test compound in Tyrodes buffer. […]
Functional antagonism is indicated by a suppression of histamine induced increase in fluorescence, as measured by the FLIPR system (Molecular Devices). By means of concentration effect curves, functional potencies are determined using standard pharmacological mathematical analysis.

Row | Kb [2] | Kb [3] | Compound | other results
1 |  |  | c1cc2c(cc1OCCCC1CCCCC1)CCN(CC1CC1)CC2 [Example E20, 7-[(3-Cyclohexylpropyl)oxy]-3-(cyclopropylmethyl)-2,3,4,5-tetrahydro-1H-3-benzazepine] | Kb ([1]; read-out: antagonism pKb, histamine H3 functional antagonist assay (method A) (converted)): < 100 nM
2 | < 1 nM | < 1 nM | O=C1CCCN1c1cnc(Oc2ccc3c(c2)CCN(CC2CC2)CC3)cn1 [Example E1, 1-(5-{[3-(Cyclopropylmethyl)-2,3,4,5-tetrahydro-1H-3-benzazepin-7-yl]oxy}-2-pyrazinyl)-2-pyrrolidinone] | 
3 |  |  | c1ccc(COc2ccc3c(c2)CCN(CC2CC2)CC3)cc1 [Example E19, 3-(Cyclopropylmethyl)-7-[(phenylmethyl)oxy]-2,3,4,5-tetrahydro-1H-3-benzazepine] | Kb ([1]; antagonism pKb, histamine H3 functional antagonist assay (method A)): < 10 nM; Kb (human H1 receptor): > 316 nM
4 |  | < 1 nM | O=C1CCCN1c1ccc(Oc2ccc3c(c2)CCN(CC2CC2)CC3)nc1 [Example E13, 1-(6-{[3-(Cyclopropylmethyl)-2,3,4,5-tetrahydro-1H-3-benzazepin-7-yl]oxy}-3-pyridinyl)-2-pyrrolidinone] | 
5 |  | < 1 nM | CCN1CCc2ccc(Oc3ccc(N4CCCC4=O)cn3)cc2CC1 [Example E14, 1-{6-[(3-Ethyl-2,3,4,5-tetrahydro-1H-3-benzazepin-7-yl)oxy]-3-pyridinyl}-2-pyrrolidinone] | 
6 | < 1 nM |  | CCC(C)N1CCc2ccc(Oc3ccc(N4CCCC4=O)cn3)cc2CC1 (centres unmarked) [Example E15, 1-(6-{[3-(1-Methylpropyl)-2,3,4,5-tetrahydro-1H-3-benzazepin-7-yl]oxy}-3-pyridinyl)-2-pyrrolidinone] | 
